Source: US7960369B2, “Receptor function regulator” (Takeda Pharmaceutical Company Limited, priority 2002, dated 2011)

Experiments:
[1] = tested on: mouse GPR40-GFP fused protein; experiment: Suppression of expression of mouse GPR40-GFP fused protein by siRNA in CHO cells (enzyme immunoassay); type: cell-based; details: siRNA 2.86 Pmol/0.5 μl or 8.57 Pmol/1.5 μl introduced into mouse GPR40-GFP expressing CHO cell; absorbance at 450 nm
Description: CHO cell expressing fused protein of mouse GPR40 and GFP prepared by a method known per se was seeded in a 96 well plate at 3×10^4/well and incubated for one day. siRNA of various sequences (Dharmacon) (concentration of 2.86 Pmol/0.5 μl or 8.57 Pmol/1.5 μl) prepared using HVJ Envelope VECTOR KIT GenomONE™ ([…] SANGYO) and according to the report of Elbasir et al. (Nature 411 (6836), 494-498 (2001)) was introduced into the cells and the cells were further incubated for one day. The expression amount of mouse GPR40-GFP was detected by the following enzyme immunoassay. The culture supernatant was discarded, washed with HBSS (Invitrogen), fixed with 0.01% glutaraldehyde (Wako Pure Chemical Industries, Ltd.) for 5 min., and blocked with PBS (TAKARA SHUZO) containing 2% BSA. 500-fold diluted anti-GFP monoclonal antibody 3E6 (NIPPON GENE CO., LTD.) was added and the cells were incubated at room temperature for 2 hrs., washed and 500-fold diluted HRP-labeled anti-mouse IgG antibody (ICN) was added, and the cells were incubated at room temperature for 2 hrs. After washing, TMB microwell peroxydase substrate (Funakoshi) was added and, after incubation for 30 min., sulfuric acid was added to stop the color developing reaction, and the absorbance at 450 nm was measured.

[2] = tested on: siRNA-introduced MIN6 cell; experiment: Insulin secretion enhancing activity of fatty acid in siRNA-introduced MIN6; type: cell-based, mouse
Description: The expression amount of mouse GPR40-GFP was detected by the following enzyme immunoassay. The culture supernatant was discarded, washed with HBSS (Invitrogen), fixed with 0.01% glutaraldehyde (Wako Pure Chemical Industries, Ltd.) for 5 min., and blocked with PBS (TAKARA SHUZO) containing 2% BSA. 500-fold diluted anti-GFP monoclonal antibody 3E6 (NIPPON GENE CO., LTD.) was added and the cells were incubated at room temperature for 2 hrs., washed and 500-fold diluted HRP-labeled anti-mouse IgG antibody (ICN) was added, and the cells were incubated at room temperature for 2 hrs. After washing, TMB microwell peroxydase substrate (Funakoshi) was added and, after incubation for 30 min., sulfuric acid was added to stop the color developing reaction, and the absorbance at 450 nm was measured.
(§1) Mouse pancreatic β cell line MIN6 cultured in a flask was detached with PBS containing 2.5 mM EDTA, and seeded and incubated in a 96 well plate for 2 days. The medium used was obtained by adding 15% fetal bovine serum (ThermoTrace), […] 2-mercaptoethanol (Invitrogen), 20 mM HEPES pH 7.3, 100 U/ml penicillin and 100 μg/ml streptomycin to Dulbecco's Modified Eagle Medium (DMEM, Invitrogen) containing 4.5 g/l of glucose. The cells were washed twice with modified Krebs-Ringer bicarbonate buffer (KRBH, 116 mM NaCl, 4.7 mM KCl, 1.2 mM KH2PO4, 1.2 mM MgSO4, 2.5 mM CaCl2, 25 mM NaHCO3, 24 mM HEPES pH 7.3) and preincubated at 37° C. under 5% CO2 conditions for 30 min. Fatty acid diluted and prepared with a buffer obtained by adding 22 mM glucose to the above-mentioned KRBH was added to the cell after preincubation and the cells were incubated at 37° C. under 5% CO2 conditions for 90 min. After incubation, the cell supernatant was recovered and cryopreserved. The insulin content of the supernatant was measured using a commercially available insulin immunoassay kit (Amersham Pharmacia Biotech).
Insulin secretion enhancing activity in MIN6 cell, into which m40i103 was introduced using HVJ Envelope VECTOR KIT GenomONE based on the method of Experimental Example 5, was examined. The insulin secretion enhancing activity by fatty acid was examined by the method of Experimental Example 6.

[3] = molecular target: T1, human-derived GPR40 (Homo sapiens, UniProt O14842); experiment: Reactivity of fatty acid to human-derived GPR40, intracellular calcium by FLIPR in transfected CHO-K1 cells; type: cell-based; details: for activity in intracellular calcium ion mobilization assay using CHO cell expressing GPR40 (GPR40 agonistic activity): as stated in Experimental Example 6
T1 construct: expressed in transfected cells; host or cells: CHO-K1, transient transfection with lipofectamine
T1 sequence (O14842 whole entry): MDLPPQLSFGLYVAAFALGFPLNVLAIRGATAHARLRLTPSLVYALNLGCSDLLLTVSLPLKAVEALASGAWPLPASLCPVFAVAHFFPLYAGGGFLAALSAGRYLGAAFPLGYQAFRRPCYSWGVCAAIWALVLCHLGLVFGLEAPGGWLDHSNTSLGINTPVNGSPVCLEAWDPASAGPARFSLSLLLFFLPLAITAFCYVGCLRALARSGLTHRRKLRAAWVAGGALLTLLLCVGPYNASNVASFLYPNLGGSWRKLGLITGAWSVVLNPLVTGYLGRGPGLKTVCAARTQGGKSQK
Description: Unless specifically indicated, CHO-K1 cell line was cultured using Ham's F-12 medium (Invitrogen) containing 10% fetal calf serum (Invitrogen). The day before transfection, 4.5×10^5 per 10 cm^2 of cells were seeded, and incubated at 37° C. for not less than 15 hrs in a CO2 incubator adjusted to 5% CO2 concentration. The transfection was performed using a lipofectamine reagent (Invitrogen) and according to the reagent attached method. When a 6-well plate was used for a culture plate, transfection was performed in the following manner. First two 1.5 ml volume tubes were prepared, and 100 μl of Opti-MEM-I medium (Invitrogen) was dispensed. Then, […] of an expression vector was added to one tube and 6 μl of a lipofectamine reagent was added to the other tube. They were mixed and stood still at room temperature for 20 min. A mixed solution for transfection containing this solution and Opti-MEM-I medium (800 μl) was added to CHO-K1 cell previously washed with Opti-MEM-I medium, and incubated in a CO2 incubator for 6 hrs. The incubated cells were rinsed with PBS (Invitrogen), detached with 0.05% trypsin-EDTA solution (Invitrogen), recovered by centrifugation. The obtained cells were counted, diluted such that 5×10^4 cells were contained per 200 μl of the medium, dispensed to black walled 96-well plate (Costar) at 200 μl per well, incubated overnight in a CO2 incubator. Various test samples were added to CHO-K1 cells transiently expressing the receptor by the above-mentioned transfection step, and changes in the intracellular calcium concentration then was measured using FLIPR (Molecular Device). For measurement of changes in intracellular calcium concentration by FLIPR, the following pretreatment was applied. First, an assay buffer for adding fluorescence dye Fluo-3AM (DOJIN) to the cell, or washing the cell immediately before FLIPR assay was prepared. To a solution (hereinafter HBSS/HEPES solution) obtained by adding 20 ml of 1M HEPES (pH 7.4) (DOJIN) to 1000 ml of HBSS (Invitrogen) was added a solution (10 ml) obtained by dissolving probenecid (710 mg, Sigma) in 1N NaOH (5 ml) and adding and mixing with HBSS/HEPES solution (5 ml) and the obtained solution was used as an assay buffer. Then, Fluo-3AM (50 μg) was dissolved in 21 μl of DMSO (DOJIN), and an equal amount of 20% pluronic acid (Molecular Probes) was added. The mixture was added to an assay buffer (10.6 ml) supplemented with 105 μl of fetal calf serum to give a fluorescence dye solution. The medium of the CHO-KL cell after transfection treatment was removed, a fluorescence dye solution was immediately dispensed at 100 μl per well and incubated in a CO2 incubator for 1 hr to incorporate the fluorescence dye into the cell. The incubated cells were washed with the above-mentioned assay buffer and set on FLIPR. The test sample to be added to receptor expressing CHO-KL cell was prepared using the assay buffer and simultaneously set on FLIPR. After the above-mentioned pretreatment, changes in the intracellular calcium concentration after addition of various test samples were measured by FLIPR.

[4] = tested on: mouse insulinoma MIN6 cell; experiment: Insulin secretagogue effect of free fatty acid in mouse insulinoma MIN6 cell (RIA); type: cell-based; details: 300 μM-1000 μM free fatty acid-BSA (4:1), 11 mM glucose, 90 min (or 60 min)
Description: Unless otherwise specified, MIN6 cell was incubated in DMEM (high glucose, Invitrogen) containing 15% FCS (Trace Scientific Ltd.), 55 μM 2-mercaptoethanol, 100 U/ml penicillin, and 100 μg/ml streptomycin. Min6 cells were seeded in a 96 well plate at 10^5 cells per well, and incubated at 37° C. for 3 days in a CO2 incubator adjusted to 5% CO2 concentration. The medium was exchanged to RPMI1640 (glucose-free, Invitrogen) containing 10% FCS (Trace Scientific Ltd.), 5.5 mM glucose, 100 U/ml penicillin and 100 μg/ml streptomycin and the cells were further incubated for 24 hrs. The medium was aspirated, free fatty acid-bovine serum albumin (BSA) mixed solution (4:1, molar ratio) diluted with RPMI1640 (glucose-free, Invitrogen) containing 10% FCS (Trace Scientific Ltd.), 11 mM glucose, 100 U/ml penicillin, and 100 μg/ml streptomycin was added to the cells and reacted at 37° C. for 90 min. (or 60 min.) in a CO2 incubator adjusted to 5% CO2 concentration. The 96 well plate after reaction was centrifuged at 1500 rpm for 5 min. and the culture supernatant was recovered. The insulin amount secreted in this culture supernatant liquid was determined by radioimmunoassay (RIA) using a rat insulin RIA system (Amersham Pharmacia Biotech).

[5] = tested on: mouse pancreatic β cell line MIN6; experiment: Promotion of insulin secretion from MIN6 (insulin immunoassay); type: cell-based; details: MIN6, KRBH with 22 mM glucose, 90 min
Description: as §1
as §1, with “(KBH,” for “(KRBH,”, “The compound” for “Fatty acid”

| Compound | mouse GPR40-GFP expression amount [1] | activity in intracellular calcium ion mobilization assay using CHO cell expressing GPR40 (GPR40 agonistic activity) [3] | insulin secretion by MIN6 cell [4] | insulin secretion enhancing activity [5] | other results |
| --- | --- | --- | --- | --- | --- |
| m40i103: "a mouse GPR40 specific siRNA (sense strand is SEQ ID NO: 23, antisense strand is SEQ ID NO: 24)" (sense CGCCAGUUGUGACAUUCUUTT; antisense TTGCGGUCAACACUGUAAGAA; chemistry not given here; one strand is listed 3' to 5') | lower GPR40-GFP expression amount |  |  |  | effect of siRNA introduction on insulin secretion enhancing activity by linoleic acid and γ-linolenic acid ([2]; siRNA introduced into MIN6 with HVJ Envelope VECTOR KIT GenomONE): no longer showed insulin secretion enhancing activity |
| CCCCCCCC/C=C\CCCCCCCC(=O)O [oleic acid] |  | remarkable activity | promoted | significant insulin secretion enhancing activity | response (increase in intracellular calcium concentration) of CHO-K1 cell expressing the GPR40 receptor ([3]; added at 10^−5M-10^−6M, FLIPR, control-vector cells showed no response): specifically responds |
| CCCCC/C=C\C/C=C\C/C=C\CCCCC(=O)O [γ-linolenic acid] |  | remarkable activity | promoted | significant insulin secretion enhancing activity | insulin secretion enhancing activity of fatty acid ([2]; MIN6 into which GPR40 specific siRNA m40i103 was introduced): no longer showed insulin secretion enhancing activity; insulin secretion enhancing activity of fatty acid ([2]; MIN6 into which random sequence Scramble II duplex siRNA was introduced): retention of the insulin secretion enhancing activity |
| CCCCCCCCCCCCCCCC(=O)O [palmitic acid] |  |  | promoted |  |  |
| m40i256: mouse GPR40 specific siRNA "(sense strand is SEQ ID NO: 25, antisense strand is SEQ ID NO: 26)" (sense CUUGUUAGCCAUCCGAGGCTT; antisense TTGAACAATCGGTAGGCTCCG; chemistry not given here; one strand is listed 3' to 5') | lower GPR40-GFP expression amount |  |  |  |  |
